According to patent publication US20180303798A1 (Ares Trading S.A., priority 2012, published 2018):

Key:
HEC-1-A cell line [1] = assay: Apoptosis assay (Propidium Iodide staining and FACS, sub-G1 events); type: cell-based, human; conditions: 24 hours
Protocol: (§1) HEC-1A cells were obtained by ATCC and culture following instructions of the provider.
(§2) HEC-1-A is an epithelial stabilized cell line isolated by H. Kuramoto from adenocarcinoma patient (21), which provide a valuable model to study endometrial epithelial cell in vitro (22).
The apoptosis (% cell death) of the endometrial cells is a physiological phenomenon generally observed at 10-20% rate during cell culture.
Apoptosis levels were assayed by Propidium Iodide staining and FACS analysis. Percentage of sub-G1 events is shown for one of two experiments performed.

HEC-1-A cell line [2] = assay: Antioxidant activity assay (ROS by FACS); type: cell-based, human
Protocol: They were used in different concentrations (i.e. 40 nM, 80 nM, 170 nM and 340 nM, corresponding respectively to 9.4×10^−9 g/ml, 18×10^−9 g/ml, 40×10^−9 g/ml and 80×10^−9 g/ml).
as §1, §2
Reactive Oxidative Substances (ROS) were measured by FACS as previously described by Italiano et al. (23) in two independent replicates.

[3] = test system: patients subjected to assisted fertilization; assay: Clinical study 1: multi-centre study, endometrial irrigation with melatonin in culture medium at oocyte retrieval; type: in vivo, human
Source text: (§3) Said culture medium is normally used to improve cleavage, differentiation and expansion in vitro of blastocyst. The medium contains D-glucose, all the 20 essential L-amino acids, L-taurine, Gentamicin, human serum albumin, calcium lactate, calcium pantothenate; sodium chloride, sodium bicarbonate and sodium pyruvate; potassium chloride, potassium phosphate; magnesium chloride, magnesium sulfate; purified water. Further characteristics of the culture medium: • pH: 7.5-7.8 (use of bicarbonate buffer) • Osmolarity: 280-290 mOsm/kg • Endotoxins: <0.4 EU/ml • MEA: ≥80% • 2) physiological solution (Clinical Trial 2)
In the logistic regression, OR corresponds to the antilogarithm on a natural basis of the regression coefficient β associated with each covariate in the regression model.
The value thus calculated expresses therefore the advantage obtained through each procedure, irrespective of the other conditions.
The two-tailed confidence intervals at 95% (IF95%) of the OR have been calculated through the formula of […]
For the latter, the CI (confidence interval or trust interval) has been calculated through statistical analysis (IMPRUN. TXT) of linear regression with more variables of 95%.

[4] = test system: patients subjected to assisted reproduction; assay: Clinical study 2: single centre study, endometrial washing with melatonin in sterile physiological solution; type: in vivo, human
Source text: as §3
Restricted criteria of inclusion have been used for selecting the patient population involved in the studies: • 3) age ≥20 and <44 years • 4) body mass index (BMI) ≥20 and ≤28 kg/m^2 • 5) Basal FSH≤19 UI/l • 6) Male and female factors
The second clinical study with a single prospective centre involved 64 patients in the group of control and 92 patients in the group of study.
In the case of the physiological solution, the catheter can be pre-filled with physiological solution supplemented with melatonin.
The catheter has been introduced in the internal uterine orifice with the same steps through which the operator carries out the conventional embryo-transfer (ET).
The single centre study involved 64 patients in the group of control and 92 patients in the group of study.
The primary endpoint of the study is the rate of clinical pregnancies (fetal heart) due to embryonic transfer (ET); the secondary endpoint is the rate of ongoing pregnancies and aborts.

endometrial tissue = assay: In vitro culture of endometrium with melatonin, visualization of pinopodes by electron microscopy (SEM); type: cell-based, human; conditions: co-culture from 3 to 5 days of endometrial tissue with permanent addition of melatonin
Protocol: The melatonin and the culture medium used are the same as those used for the in vivo study.
It has been used a field emission at high resolution electron microscope, FE HITACHI S 4000 model, operating at […].
Soon after retrieval from the patient, small pieces of endometrial tissue of about 1 mm in size have been placed in a fixing solution composed of paraformaldehyde 1% and glutaraldehyde 0.5% in buffer cacodylate 0.1 M pH 7.2 for 3 hours.
After this fixing the pieces are washed in PBS 20 min×3 times (1 hour total) and then the post fixing is carried out in a solution of osmium tetroxide 2% and potassium ferrocyanide 2.5%.
The preparation is kept in the dark for 3 hours to be then accurately washed rotating in PBS, with 4 replacements of 20 min each.
It follows dehydration of the samples of tissue with acetone in ascending succession with 3 replacements in 1 hour for each gradation 50%-70%-80%-90%-95% and 2 replacements with pure acetone. […]
The samples are fixed through a special electrically conductive double sided adhesive and for their arrangement two very thin needles are used and the preparation is ready to be observed with scanning electron microscope (SEM). […]

Ishikawa cells = conditions: effect produced through MT2 receptors; reference (7); cited from earlier work
[5] = 170 nM (40 ng/ml) compound, H2O2 200 mcg/ml
[6] = number of patients out of 92 ET

Row | Structure (SMILES) | effect on apoptosis (% cell death, sub-G1) (HEC-1-A cell line [1]; up to concentration of 170 nM) | protection of cell line from oxidation (ROS, FACS) (HEC-1-A cell line [2]; [5]) | anti-oxidative effect (ROS, FACS) (HEC-1-A cell line [2]; dose increased up to 340 nM, H2O2 200 mcg/ml, data not shown) | effect on apoptosis (% cell death, sub-G1) (HEC-1-A cell line [1]; at 170 and 340 nM) | effect on apoptosis (% cell death, sub-G1) (HEC-1-A cell line [1]; all the concentrations tested (80, 170, 340 nM)) | number of pregnancies with respect to the other two groups ([3]; irrigation or washing with melatonin vs physiological solution and no irrigation) | result of endometrial irrigation at lower concentration ([3]; preceding studies with one third and the half of the final concentration 10×10^−9 g/ml, not shown data) | rate of clinical pregnancies and ongoing pregnancies vs the group of control ([4]; endometrial washing with solutions containing melatonin, infertile female population) | Aborts ([4]; group of study) | BHCG Positive (on total of ET) ([4]; group of study, 92 ET) | rate of ongoing pregnancies (Ongoing Pregnancy/ET) ([4]; group of study, 92 ET) | rate of clinical pregnancies (Clinical Pregnancy/ET) ([4]; group of study, 92 ET, melatonin 10×10^−9 g/ml in physiological solution) | BHCG Positive (on total of ET), No [4, 6] | Clinical Pregnancy/ET, No [4, 6] | Ongoing Pregnancy/ET, No [4, 6] | Aborts, No ([4]; number of patients, group of study) | pinopodes (SEM) with respect to the culture of control (endometrial tissue) | proliferation of atypical endometrial cells (Ishikawa) (Ishikawa cells) | anti-oxidative effect (ROS, FACS) (HEC-1-A cell line [2]; 170 nM (40 ng/ml) compound, H2O2 20 mcg/ml)
1 | COc1cc2c(CCNC(C)=O)c[nH]c2cc1O [6-hydroxy-melatonin, 6-hydroxymelatonin] | no effect on apoptosis | does not | anti-oxidative effect of this analogue is reached |  |  |  |  |  |  |  |  |  |  |  |  |  |  |  | 
2 | COc1ccc2cccc(CCNC(C)=O)c2c1 [agomelatine] |  | continued to protect cell line from oxidation |  | protective effect |  |  |  |  |  |  |  |  |  |  |  |  |  |  | 
3 | COc1ccc2[nH]cc(CCNC(C)=O)c2c1 [melatonin, N-acetyl-5-methoxytryptamine] |  | continued to protect cell line from oxidation |  |  | protective effect on apoptosis | double the number of pregnancies | without giving the same results | double | 11.8% | 44.6% | 32.6% | 37% | 41 | 34 | 30 | 4 | unquestionable increase of pinopodes | inhibits proliferation | same anti-oxidative effect
